# Results from patent US6355799B1, “Substituted benzene compounds, process for their preparation, and herbicidal and defoliant compositions containing them” (ISK Americas Incorporated, priority 1997, dated 2002).
# Assays:
# Type in all cases: in vivo
# [1] = system: upland rice (Oryza sp., var. Tebonnet, RICE); assay: Pre-emerge test, crop safety; conditions: crop damage, pre-emerge, phytotoxicity rating 0-100 at 14 days after application
# Outline: (§1)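 Visual ratings on a 0-100 scale (0 no damage, 100 all plants dead) were taken at 14 days after treatment. Rates of 15-1000 g ai/ha in acetone, 187 l/ha, were sprayed onto soil one day after planting (pre-emerge) or onto 2-3 leaf plants with 0.25% v/v surfactant (post-emerge).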
# [2] = system: field corn (Zea mays L., var. Dekalb 535, CORN); assay: Pre-emerge test, crop safety; conditions: crop damage, pre-emerge, phytotoxicity rating 0-100 at 14 days after application
# Outline: as §1
# [3] = system: green foxtail (Setaria viridis, SETVI); assay: Pre-emerge test, greenhouse herbicide activity screening; conditions: pre-emerge, phytotoxicity rating 0-100 at 14 days after application
# Outline: (§2)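 Rating: 0–100 visual injury, 14 DAA. Application: acetone, 187 l/ha, 15–1000 g ai/ha, flat-fan track sprayer with nozzle 40–45 cm above soil or canopy. Post-emerge runs used 0.25% v/v surfactant on 2–3 leaf plants.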
# [4] = system: large crabgrass (Digitaria sanguinalis, DIGSA); assay: as above; conditions: pre-emerge, phytotoxicity rating 0-100 at 14 days after application
# Outline: as §2
# [5] = system: velvetleaf (Abutilon theophrasti, ABUTH); assay: as above; conditions: pre-emerge, phytotoxicity rating 0-100 at 14 days after application
# Outline: as §2
# [6] = system: lambsquarters (Chenopodium album, CHEAL); assay: as above; conditions: pre-emerge, phytotoxicity rating 0-100 at 14 days after application
# Outline: as §2
# [7] = system: barnyardgrass (Echinochloa crus-galli, ECHCG); assay: as above; conditions: pre-emerge, phytotoxicity rating 0-100 at 14 days after application
# Outline: as §2
# [8] = system: ivyleaf morningglory (Ipomoea hederacea, IPOHE); assay: as above; conditions: pre-emerge, phytotoxicity rating 0-100 at 14 days after application
# Outline: as §2
# [9] = system: johnsongrass (Sorghum halepense, SORHA); assay: as above; conditions: pre-emerge, phytotoxicity rating 0-100 at 14 days after application
# Outline: as §2
# [10] = system: sicklepod (Cassia obtusifolia, CASOB); assay: as above; conditions: pre-emerge, phytotoxicity rating 0-100 at 14 days after application
# Outline: as §2
# [11] = system: redroot pigweed (Amaranthus retroflexus, AMARE); assay: as above; conditions: pre-emerge, phytotoxicity rating 0-100 at 14 days after application
# Outline: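 Sandy loam pots; pre-emerge: sown 1 d pre-spray, surface-watered after, then bottom-watered. Post-emerge: sown 8–21 d before, 2–3 leaf stage, + 0.25% v/v NIS, bottom-watered. Acetone, 187 l/ha track spray, 15–1000 g ai/ha. 0–100 injury score, day 14.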
structure (smiles),measurement,setting,value
COc1c(Cl)cc(F)c(-n2c(=O)n3n(c2=O)CCCC3)c1N [9-4],Pre-emerge Herbicidal Activity RICE,[1]; rate 63 g ai/ha,0
same,Pre-emerge Herbicidal Activity RICE,[1]; rate 250 g ai/ha,10
same,Pre-emerge Herbicidal Activity CORN,[2]; rate 63 g ai/ha,0
same,Pre-emerge Herbicidal Activity CORN,[2]; rate 250 g ai/ha,0
same,Pre-emerge Herbicidal Activity SETVI,[3]; rate 63 g ai/ha,0
same,Pre-emerge Herbicidal Activity SETVI,[3]; rate 250 g ai/ha,70
same,Pre-emerge Herbicidal Activity DIGSA,[4]; rate 63 g ai/ha,0
same,Pre-emerge Herbicidal Activity DIGSA,[4]; rate 250 g ai/ha,60
same,Pre-emerge Herbicidal Activity ABUTH,[5]; rate 63 g ai/ha,90
same,Pre-emerge Herbicidal Activity ABUTH,[5]; rate 250 g ai/ha,100
same,Pre-emerge Herbicidal Activity CHEAL,[6]; rate 63 g ai/ha,30
same,Pre-emerge Herbicidal Activity CHEAL,[6]; rate 250 g ai/ha,80
same,Pre-emerge Herbicidal Activity ECHCG,[7]; rate 63 g ai/ha,0
same,Pre-emerge Herbicidal Activity ECHCG,[7]; rate 250 g ai/ha,10
same,Pre-emerge Herbicidal Activity IPOHE,[8]; rate 63 g ai/ha,10
same,Pre-emerge Herbicidal Activity IPOHE,[8]; rate 250 g ai/ha,50
same,Pre-emerge Herbicidal Activity SORHA,[9]; rate 63 g ai/ha,0
same,Pre-emerge Herbicidal Activity SORHA,[9]; rate 250 g ai/ha,30
same,Pre-emerge Herbicidal Activity CASOB,[10]; rate 63 g ai/ha,30
same,Pre-emerge Herbicidal Activity CASOB,[10]; rate 250 g ai/ha,60
same,Pre-emerge Herbicidal Activity AMARE,[11]; rate 63 g ai/ha,60
same,Pre-emerge Herbicidal Activity AMARE,[11]; rate 250 g ai/ha,100
